Assay results: publication PMC3496387 (Molecular pharmaceutics, 2009)
Like-named read-outs stand apart in the source and are kept apart here.

Legend:
[1] = n=3
[2] = Stability in rat intestinal; format: in vitro ADME; settings: rat intestinal perfusate, similar conditions, control compound
[3] = isotonic buffer pH 1.2, 37°C, * = estimated half lives
[4] = isotonic buffer pH 4.0, 37°C, * = estimated half lives
[5] = isotonic buffer pH 6.0, 37°C, * = estimated half lives

| Compound | Half lives, t1/2 [1, 3] | Half lives, t1/2 [1, 4] | Half lives, t1/2 [1, 5] [min] | Half lives, t1/2 ([1]; isotonic buffer pH 7.4, 37°C) [min] | time to complete hydrolysis [2] [h] |
| --- | --- | --- | --- | --- | --- |
| CC(OC(=O)c1ccccc1)OC(=O)[C@@H](N)Cc1ccccc1 (stereo partly drawn) [BA-Et-Phe, 1-((S)-2-amino-3-phenylpropanoyloxy) ethyl benzoate] | 1732 min | 3465 ^* min | 385 ± 19 | 24 ± 2 |  |
| NC(Cc1ccccc1)C(=O)OCOC(=O)c1ccccc1 (stereo not drawn) [BA-Me-Phe, (2-amino-3-phenylpropanoyloxy) methyl benzoate] | 193 min | 385 min | 2.1 |  |  |
| CC(OC(=O)Cc1ccccc1)OC(=O)C(N)C(C)C (stereo not drawn) [PA-Et-Val, 1-(2-phenylacetoxy) ethyl 2-amino-3-methylbutanoate] | 11550 ^* min | 23100 ^* min | 1732.5 | 50 ± 14.8 |  |
| CC(C)C[C@H](NC(=O)[C@H](Cc1ccccc1)NC(=O)CNC(=O)CNC(=O)[C@@H](N)Cc1ccc(O)cc1)C(=O)O [leu-enkephalin] |  |  |  |  | ≤ 1 |
